Results: patent publication US12575768B2, “Analyte sensor antimicrobial configurations and adhesives” (Abbott Diabetes Care, Inc., priority 2018, dated 2026)

Tested on: gram-positive bacteria strains associated with common skin flora and wound infection
Assay: modified Kirby-Bauer disk diffusion assay, overall conclusion
Assay type: cell-based
Conditions: conclusion from zone of inhibition measurements of Table 1
Protocol: Example 3: […] Testing of Silver-Based Antimicrobial Quality. In this example, sensors membranes comprising the silver-based antimicrobial compounds of Example 2 (tested in quadruplicate for each of the sensors in Example 2) and the Control of Example 2 were evaluated […] against a variety of gram-positive bacteria strains associated with common skin flora and wound infection, and which were nosocomial-derived using a modified Kirby-Bauer disk diffusion assay for antibiotic susceptibility testing. The bacteria used for evaluation were Staphylococcus aureus (MRSA) (ATCC #33591), Staphylococcus epidermidis (ATCC #12228), Enterococcus faecalis (ATCC #4082), and Streptococcus pyogenes (ATCC #19615). Each were cultured on Tryptic Soy Agar, except for S. pyogenes, which were cultured on Blood Agar.

[Cl][Ag] [silver chloride]
antimicrobial properties (in words): demonstrate antimicrobial properties

[Ag][I] [silver iodide]
antimicrobial properties (in words): demonstrate antimicrobial properties
